“Also recorded” adds a separate entry of the source. Like-named read-outs stand apart in the source and are kept apart here.
Key:
hCoV-OC43 [1] = test: hCoV-OC43 replication and spread in MRCS cells, N protein immunofluorescence, high-content imaging; assay type: cell-based
Protocol: FIG. 2. Inhibiting METTL3 in lung fibroblasts suppresses hCOV-OC43 replication. (A) MRCS cells infected with hCOV-OC43 [MOI=0.001] were treated with vehicle (DMSO), control compound (M3c), active METTL3 inhibitor (M3i) or (+) control antiviral remdesivir (rem). Viral spread through the culture was determined by immunofluorescence using an antibody to the hCoV-OC43 nucleocapsid protein (green stain). (B) Quantitation of N protein positive cells from (A) (n=3; **P<0.005; *P<0.05 by t-test for M3c vs M3i). Suppression of viral replication by M3i is evident from >0.5 mM and higher. (C) Test compounds (3 mM) have no significant impact on MRCS viability (n=3) after 48 h of treatment.
To evaluate how METTL3 enzymatic activity impacted coronavirus reproduction, we compared the activity of a specific METTL3 chemical inhibitor (Tzelepis et al., 2019), here termed M3i, to a structurally related control compound M3c unable to inhibit METTL3. […] To measure coronavirus replication, we developed an assay (FIG. 2A) that uses indirect immunofluorescence to detect coronavirus nucleocapsid protein (N) to monitor and quantify virus reproduction and spread using a high-content imaging platform (Cellinsight CX7 LZR). […] In FIG. 2C, the bars from left to right indicate DMSO, M3c, M3i, and remdesivir. […] In FIG. 3A, the bars from left to right represent DMSO, M3c and M3i. In FIG. 3B, the bars represent Not Treated, M3c and M3i. […] It is believed this requirement will extend to other RNA viruses, including coronaviruses with pandemic potential. The data further provide proof in principle that the cellular m^6A modification machinery represents an unexpected host target for anti-coronavirus drug targeting.

MRCS cells = test: MRCS cell viability (ATP, Celltiterglo2.0); assay type: cell-based, human
Protocol: To determine viability, cells were seeded to opaque white 96-well plates. The next day, cells were drug- or vehicle-treated and incubated as in infection experiments (for example, treated-MRC-5 cells were placed for 48 h at 33° C.). ATP levels were then assayed using Celltiterglo2.0 (Promega G9242) according to the manufacturer's instructions. Luciferase signal was read on a Perkin Elmer Envision 2103 multilabel reader, and 24-h 1 μM staurosporine treatment used as a positive control for assay sensitivity.

hCoV-OC43 [2] = test: hCoV-OC43 infectious virus production from MRCS cells by TCID50; assay type: cell-based; conditions: for hCoV-OC43 infectious virus production: TCID50 after 48h, compared to equivalent concentrations of M3c or DMSO; for efficacy compared with remdesivir: hCoV-OC43 infectious virus production
Protocol: FIG. 8. Inhibiting METTL3 in lung fibroblasts limits hCOV-OC43 infectious virus production. MRCS cells infected with hCOV-OC43 [MOI=0.001] were treated with vehicle (DMSO), control compound (M3c) or active METTL3 inhibitor (M3i2 in A or M3i in B) at the indicated concentration. After 48h, the amount of infectious virus released was quantified by TCID50. N=3. **P<0.01; *P<0.05 by student's t-test.
In FIGS. 7B and 7C, each set of bars from left to right signifies DMSO, M3c and M3i2. […] To determine how METTL3 chemical inhibitors influenced virus production, we quantified and compared infectious virus produced by infected cell cultures treated with vehicle, a control compound (M3c), the two different METTL3 chemical inhibitors (M3i, M3i2) and remdesivir.

SARS-CoV-2 [3] = test: microbe, parasite or virus in culture; assay type: cell-based
SARS-CoV-2 [4] = test: SARS-CoV-2 infectious virus titers from A549+ACE2 cells by plaque assay; assay type: cell-based; conditions: MOI=0.1, 30 μM
Protocol: FIG. 11. Inhibition of METTL3 activity suppresses β-coronavirus replication in A549+ACE2 cells. […] The percentage of cells infected was established by green fluorescence and normalized to infection of nontreated cells. (B) The viability of A549+ACE2 cells in the presence of concentrations of each compound used in the infection assays shown in A was assessed using a commercial ATP quantitation assay. Cells were maintained at 37° C. in culture medium containing diluted compound for 48 h prior to lysis. Each experiment was conducted three times with internal duplicates, normalized to DMSO-treated cells processed in parallel and plotted as the mean±SEM. (C) Representative montages showing wells from the infections quantified in A that were treated with 30 μM M3c or M3i2 and infected with icSARS-CoV-2-mNG. (D) Infectious virus titers from A549+ACE2 cells infected with icSARS-CoV-2-mNG at MOI=0.1 and treated with 30 μM either M3c or M3i2 was determined by plaque assay.
This concordance further validates the high-content imaging assay as a measure of viral replication and release. Thus, a selective small molecule METTL3 inhibitor effectively suppresses the productive replication of human β-coronavirus, pandemic SARS-CoV-2 in a further human lung cell line.

A549+ACE2 cells = conditions: 48 h, FIG. 11B
SARS-CoV-2 [5] = assay type: cell-based; conditions: FIG. 3A
viral dsRNA = test: Viral dsRNA accumulation, immunofluorescence with J2 dsRNA-specific antibody; assay type: cell-based
[6] = system: coronavirus nucleocapsid protein (N); assay type: cell-based; conditions: infected MRCS cells, 24 h treatment / 24 hpi
viral RNA = test: Viral RNA accumulation by RT-qPCR; assay type: cell-based; conditions: RT-qPCR (not shown)
METTL3 = METTL3 (Homo sapiens, UniProt Q86U44); conditions: Tzelepis et al., 2019; cited from earlier work
Sequence of METTL3 (Q9HCE5 whole entry): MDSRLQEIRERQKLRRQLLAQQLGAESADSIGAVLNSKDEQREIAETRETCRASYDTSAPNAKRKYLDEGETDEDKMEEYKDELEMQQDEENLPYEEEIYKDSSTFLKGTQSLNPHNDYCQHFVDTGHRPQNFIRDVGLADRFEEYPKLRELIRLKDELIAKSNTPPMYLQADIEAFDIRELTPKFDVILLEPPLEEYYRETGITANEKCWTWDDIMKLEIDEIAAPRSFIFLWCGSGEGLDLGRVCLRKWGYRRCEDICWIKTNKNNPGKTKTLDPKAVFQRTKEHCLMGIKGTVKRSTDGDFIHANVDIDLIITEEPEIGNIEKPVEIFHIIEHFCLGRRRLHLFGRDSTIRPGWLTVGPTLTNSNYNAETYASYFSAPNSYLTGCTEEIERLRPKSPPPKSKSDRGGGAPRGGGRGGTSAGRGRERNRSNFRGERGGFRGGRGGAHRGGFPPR
Sequence of METTL3 (Q86U44 whole entry): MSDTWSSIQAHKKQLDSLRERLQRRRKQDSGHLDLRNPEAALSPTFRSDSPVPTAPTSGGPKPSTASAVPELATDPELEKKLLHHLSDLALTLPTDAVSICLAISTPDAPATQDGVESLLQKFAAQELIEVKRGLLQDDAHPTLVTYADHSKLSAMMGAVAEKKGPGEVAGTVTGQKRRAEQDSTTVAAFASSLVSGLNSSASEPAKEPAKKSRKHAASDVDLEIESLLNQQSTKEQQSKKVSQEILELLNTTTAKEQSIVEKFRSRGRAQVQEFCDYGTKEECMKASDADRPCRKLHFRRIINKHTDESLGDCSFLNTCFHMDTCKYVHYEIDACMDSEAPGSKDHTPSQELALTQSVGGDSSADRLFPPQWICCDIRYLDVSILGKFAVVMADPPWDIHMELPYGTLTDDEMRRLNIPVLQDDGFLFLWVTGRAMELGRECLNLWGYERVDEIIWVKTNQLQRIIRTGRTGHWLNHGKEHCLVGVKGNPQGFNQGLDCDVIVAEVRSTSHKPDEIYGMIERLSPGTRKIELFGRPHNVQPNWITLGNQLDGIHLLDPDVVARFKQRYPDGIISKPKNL

## O=C(NCc1cn2cc(CNCC3CCCCC3)ccc2n1)c1cc(=O)n2ccccc2n1 [M3i2]
hCoV-OC43 [1]; 10 μM, compared to control compound M3c
  hCoV-OC43 reproduction and spread through MRCS cells: inhibited
MRCS cells; 10 μM, MRCS cells (FIG. 7C)
  effects on cell viability: without any discernible effects
hCoV-OC43 [2]
  hCoV-OC43 infectious virus production: reduced
hCoV-OC43 [2]; FIG. 8
  efficacy compared with remdesivir: neither were as efficacious as remdesivir
SARS-CoV-2 [3]; Severe acute respiratory syndrome coronavirus 2, A549+ACE2 cells, read-out: IC50 against SARS-CoV-2
  IC50: 16.8 µM
SARS-CoV-2 [3]; higher concentrations, compared with DMSO or M3c
  icSARS-CoV-2-mNG-infected A549+ACE2 cells: clearly reduced
SARS-CoV-2 [4]
  reduction of SARS-CoV-2 infectious virus production: 300 fold
A549+ACE2 cells
  viability of A549+ACE2 cells: Minor differences

## CC1(C)CCN(Cc2ccc3nc(Cn4cc(-c5cc(Br)cc6[nH]ncc56)nn4)cn3c2)CC1 [M3i]
hCoV-OC43 [1]; MRCS cells
  concentration at which hCoV-OC43 replication and spread is strongly suppressed: ≥ 0.5 µM
hCoV-OC43 [1]; compared to the inactive compound M3c, FIG. 9
  hCoV-OC43 reproduction and spread in MRCS cells: reduced
MRCS cells; MRCS cells, siRNA-treated, FIG. 9C
  cell viability of siRNA-treated cultures: did not detectably change
MRCS cells; over the dosage range tested (FIG. 2C)
  effects on MRCS cell viability: negligible detectable effects
SARS-CoV-2 [5]
  SARS-CoV-2 replication in Calu-3 cells: significantly reduced
hCoV-OC43 [2]; FIG. 8
  reduction of hCoV-OC43 replication compared with M3i2: to a greater extent than M3i2
  efficacy compared with remdesivir: neither were as efficacious as remdesivir
hCoV-OC43 [2]
  hCoV-OC43 infectious virus production: reduced
Viral dsRNA
  viral dsRNA accumulation: blocks; also recorded: significant reduction
[6]
  N accumulation / N expression: reduced
Viral RNA
  accumulation of viral RNA: significant reduction
Calu-3 cells; concentrations of 3 mM or lower
  impact on viability of Calu-3 cell: minimal impact
Calu-3 cells; over the dosage range tested (FIG. 3B)
  effects on Calu-3 cell viability: negligible detectable effects
METTL3
  selectivity for METTL3: highly selective

## AGGAGCCAGCCAAGAAAUCAA[dT][dT] [METTL3-2]
hCoV-OC43 [1]; cultures treated with M3c
  hCoV-OC43 replication and spread (N protein positive cells) after METTL3 depletion: not
hCoV-OC43 [1]; cultures treated with M3i
  hCoV-OC43 replication and spread (N protein positive cells) after METTL3 depletion: increased

## CACCUACGGACAGCUCAGU[dT][dT] [siRNA #4]
SARS-CoV-2 [3]
  reduction of the percentage of infected (mNeonGreen-positive) cells: 89%

## CUGCAAGUAUGUUCACUAUGA[dT][dT [METTL3-1]
hCoV-OC43 [1]; cultures treated with M3c
  hCoV-OC43 replication and spread (N protein positive cells) after METTL3 depletion: not
hCoV-OC43 [1]; cultures treated with M3i
  hCoV-OC43 replication and spread (N protein positive cells) after METTL3 depletion: increased

## GAAACGCGGCGUUUGGGCA[dT][dT] [YTHDF1 siRNA #3]
SARS-CoV-2 [3]
  reduction of the percentage of infected (mNeonGreen-positive) cells: 79%

## GUAACGGAGACCAUCAUUU[dT][dT] [YTHDF1 siRNA #1]
SARS-CoV-2 [3]
  reduction of the percentage of infected (mNeonGreen-positive) cells: 68%

## GUCAAUGGGAGUGGGCAUU[dT][dT] [YTHDF1 siRNA #2]
SARS-CoV-2 [3]; siRNA 72 h before infection, MOI=0.1, 48 h, compared with control nonsilencing siRNA
  reduction of the percentage of infected (mNeonGreen-positive) cells: 23%

Reference: US11944608B2, “Targeting RNA viruses using inhibitors of METTL3” (priority 2020, dated 2024)
